Results taken from patent US20140086938A1, “METHODS OF INHIBITING TUMOR GROWTH USING TTK ANTAGONISTS” (University Health Network, priority 2007, published 2014).

What was measured:
Test in all cases: SP600125 SRB growth inhibition
Assay type in all cases: cell-based
Hs578T = details: Homo sapiens, Hs-578T, 120 h, SRB assay 5 days after addition
Method: (§1) Compound SP600125 was purchased from Biomol International (PA, USA). 10 mM stock was prepared in 100% DMSO. Cells were seeded at various numbers, ranging from 1500 to 4000 per 80 μl in each well according to cell growth rate, into 96 well plates, 24 hours before compound overlay. The 10 mM SP600125 compounds stock in 100% DMSO was diluted with Opti-MEM I Reduced-Serum Medium (Invitrogen, Burlington, ON, Canada) to concentrations range from 50 nM to 250 μM. 20 μl from each concentration was overlay to cells to make the final concentrations range from 10 nM to 50 μM. The cells were cultured for 5 days before Sulforhodamine B assay. SRB assay is performed to assess cell survival. SRB is a water-soluble dye that binds to the basic amino acids of the cellular proteins. Thus, colorimetric measurement of the bound dye provides an estimate of the total protein mass that is related to the cell number. the cells are fixed in situ by gently aspirating off the culture media and adding 50 μl ice cold 10% Tri-chloroacetic Acid (TCA) per well and incubate at 4° C. for 30-60 min. The plates are washed with tap water five times and allowed to air dry for 5 min. Add 50 μl 0.4% (w/v) Sulforhodamine B solution in 1% (v/v) acetic acid per well and incubate for 30 min at RT for staining. Following staining, plates are washed four times with 1% acetic acid to remove any unbound dye and then allowed to air dry for 5 min. Stain is solubilized with 100 ul of 10 mM Tris pH 10.5 per well. Absorbance is read at 570 nm. The cell survival percentage in each compound concentration was calculated over the cell DMSO control, which was growing in the presence of 0.1% DMSO (0.5% in the case of 50 μM compounds). The GI50 were calculated using GraphPad PRISM software.
(§2) Cell viability was assessed using the SRB assay described herein, which was performed 5 days after the addition of SP600125 to the culture media. Prism software was used to calculate GI50 (concentration of the compound required to achieve 50% growth inhibition) (Table 3).

MCF-7 = details: Homo sapiens, MCF7, 120 h, SRB assay 5 days after addition
Method: as §1, §2

SKBr-3 = details: Homo sapiens, SK-BR-3, 120 h, SRB assay 5 days after addition
Method: as §1, §2

T47D = details: Homo sapiens, 120 h, SRB assay 5 days after addition
Method: as §1, §2

MDA-MB-330 = details: Homo sapiens, 120 h, SRB assay 5 days after addition
Method: as §1, §2

BT474 = details: Homo sapiens, BT-474, 120 h, SRB assay 5 days after addition
Method: as §1, §2

MDA-MB-453 = details: Homo sapiens, 120 h, SRB assay 5 days after addition
Method: as §1, §2

MDA-MB-231 = details: Homo sapiens, 120 h, SRB assay 5 days after addition
Method: as §1, §2

184A = details: Homo sapiens, 120 h, SRB assay 5 days after addition
Method: as §1, §2

MDA-MB-435 = details: Homo sapiens, 120 h, SRB assay 5 days after addition
Method: as §1, §2

MDA-MB-468 = details: Homo sapiens, 120 h, SRB assay 5 days after addition
Method: as §1, §2

HCC1419 = details: Homo sapiens, 120 h, SRB assay 5 days after addition
Method: as §1, §2

GI50 (MCF-7): 0.671 µM
GI50 (SKBr-3): 0.812 µM
GI50 (T47D): 2.52 µM
GI50 (MDA-MB-330): 7.02 µM
GI50 (BT474): 8.59 µM
GI50 (MDA-MB-453): 2.3 µM
GI50 (MDA-MB-231): 0.894 µM
GI50 (MDA-MB-435): 0.823 µM
GI50 (MDA-MB-468): 0.483 µM
GI50 (HCC1419): 10 µM
Compound: Oc1c2ccccc2c2c3c(cccc13)N=N2 [SP600125, anthra(1,9-cd)pyrazol-6(2H)-one 1,9-pyrazoloanthrone]
GI50 (Hs578T): 1.84 µM
GI50 (184A): 1.59 µM
